Measurements taken from publication PMC3644560 (Journal of the American Chemical Society, 2013).

How the values were obtained:
[1] = biological target: T1, E. coli IspH (Escherichia coli, UniProt P62623); experiment: IspH inhibition assay using [3-14C]HMBPP and the NADPH/FpR1/FldA reducing system; format: biochemical; settings: steady-state studies with [3-14C]HMBPP and NADPH/FpR1/FldA
[2] = biological target: T1, E. coli IspH; format: biochemical
[3] = biological target: T1, E. coli IspH; experiment: Spectrophotometric IspH assay; format: biochemical; settings: for substrate for IspH (NADPH consumption at 340 nm): 200 μM compound, IspH 0.5 μM, anaerobic, pH 8
[4] = system: Aquifex aeolicus IspH; settings: Aquifex aeolicus enzyme, DT-reduced MV ref 26; cited from earlier work
[5] = fit of kapp vs [AMBPP] to Eqn 2, mechanism A, pH 8, 37 °C

T1 sequence (P62623 whole entry): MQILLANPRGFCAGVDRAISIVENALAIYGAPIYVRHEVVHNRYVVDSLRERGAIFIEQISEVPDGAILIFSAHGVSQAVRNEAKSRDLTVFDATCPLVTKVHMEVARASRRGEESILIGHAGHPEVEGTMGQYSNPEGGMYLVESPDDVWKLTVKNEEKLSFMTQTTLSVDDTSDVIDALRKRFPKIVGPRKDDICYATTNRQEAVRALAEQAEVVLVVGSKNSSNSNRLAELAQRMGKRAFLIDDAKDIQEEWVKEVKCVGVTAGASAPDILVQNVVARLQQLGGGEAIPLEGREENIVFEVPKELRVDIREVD

SMILES	mode of inhibition [1]	IC50 [2]	Ki [3]	substrate for IspH (NADPH consumption at 340 nm) [3]	effect of pH on inhibition constant and rate of binding to IspH ([3]; Figures S5 and S6)	k3 (rate constant of formation of the EI complex) [3, 5]	k4 (rate constant of dissociation of the EI complex) [3, 5]	IC50 [4]
C/C(=C\COP(=O)(O)OP(=O)(O)O)CN.N.N [AMBPP, (E)-4-Amino-3-methylbut-2-enyl 1-diphosphate bis ammonium salt]	competitive inhibition was confirmed	150 ± 20 nM	54 ± 19 nM	not substrates for IspH	decrease as pH increases	41000 M⁻¹ s⁻¹	0.0022 s⁻¹	–
C/C(=C\COP(=O)(O)OP(=O)(O)O)CS.N.N [TMBPP, (E)-4-Mercapto-3-methyl-but-2-en-1-yl diphosphate bis ammonium salt]	competitive inhibitor	210 ± 10 nM	–	not substrates for IspH	–	–	–	–
C#CCCOP(=O)(O)OP(=O)(O)O [3-butynyl diphosphate]	–	–	–	–	–	–	–	450 nM
